Columns and labels:
[1] = tested on: CD-1 mice; assay: Autopsy and measurement of kidney weight; format: in vivo, mouse; conditions: at autopsy, 184 days from administration
Protocol: The ^225Ac-labeled anti-MUC5AC humanized antibody produced in Production Example 3 was administered to CD-1 mice (5 weeks old, male, manufactured by Charles River Japan), each group n=5 at a dose of 15 kBq/mouse and, as a renal protective agent, any of Zn-DTPA, furosemide, spironolactone, and eplerenone was administered in combination at the dosage, administration method, administration frequency, and initial administration timing shown in Table 1. That is, a group to which only ^225Ac-labeled anti-MUC5AC humanized antibody was administered (Comparative Example 1), a group to which ^225Ac-labeled anti-MUC5AC humanized antibody and each renal protective agent administered in combination (Example 1 to Example 7), and a group to which only a renal protective agent is administered without administration of ^225Ac-labeled anti-MUC5AC humanized antibody (Comparative Examples 2 to 5) were established. The dose of the ^225Ac-labeled anti-MUC5AC humanized antibody, each renal protective agent, and feeding conditions are shown in Table 1. The sustained release tablets used for the transdermal administration group of each renal protective agent were those manufactured by Innovative Research of America, and the mixed feed containing 0.004% of each renal protective agent used was manufactured by Oriental Yeast Co., Ltd.
On the final day of the observation period (184 days from the day of administration of the ^225Ac-labeled anti-MUC5AC humanized antibody), euthanasia and autopsy were performed by exsanguination under isoflurane anesthesia. After autopsy, the kidneys were collected and weighed. The obtained organ weight measurement results (excluding Example 7) were confirmed for the homoscedasticity of the measured values. Since homoscedasticity was confirmed for all items, a significant difference test was performed using the Tukey method, which is a parametric test. The significance level was set to 5%.

[2] = tested on: CD-1 mice; assay: Urinary renal toxicity marker (urinary NGAL/creatinine ratio by ELISA); format: in vivo; conditions: urine 16 weeks after administration of ^225Ac-labeled antibody (15 kBq/mouse), n=4 to 5
Protocol: Whether combined administration of a ^225Ac-labeled anti-MUC5AC humanized antibody prepared using ^225Ac-labeled DOTAGA-DBCO and a compound expected to have a renal protective effect (renal protective agent) reduces delayed renal toxicity caused by radiation emitted from ^225Ac or ^225Ac daughter nuclide was evaluated. […]
During the observation period, body weight measurement, blood cell measurement, and renal toxicity marker measurement were performed over time and signs of toxicity were evaluated.
Urine was collected from each individual 16 weeks after the administration of the ^225Ac-labeled anti-MUC5AC humanized antibody, and neutrophil gelatinase-associated lipocalin (NGAL), and creatinine concentration of the urine samples were measured by ELISA. […] The NGAL value corrected for urine concentration was calculated by dividing the obtained NGAL value by the creatinine value (urinary NGAL/creatinine ratio, hereinafter referred to as urinary N/C ratio). The calculated urinary N/C ratio was confirmed using Stat PreClinica (manufactured by Takumi Information Technology Co., Ltd.) for the homoscedasticity of the measured values. […]

`O=C([O-])CN(CCN(CC(=O)[O-])CC(=O)[O-])CCN(CC(=O)[O-])CC(=O)[O-].[Na+].[Na+].[Na+].[Zn+2]` [Comparative Example 2, Zn-DTPA] was tested, and the body weight [1] was 44.48 ± 4.5 g, the kidney weight [1] was 0.75 ± 0.12 g and the “kidney weight/body weight ratio” value [1] was 0.017 ± 0.001. The “N/C ratio (urinary NGAL/creatinine ratio)” value [2] was 1.1 ± 0.60.
